Source: US5550139A, “Serine protease inhibitors” (The Wichita State University, priority 1994, dated 1996)
Values belong to the compound of their own block, whether it stands above or below them.

What was measured:
[1] = target: T1, Proteinase-3 (Homo sapiens, UniProt P24158); assay: Proteinase-3 inhibition; type: biochemical; design: % Proteinase-3 Inhibition: concentration or dose not given beside the values; settings: Table 7
T1 sequence (P24158 28-248 limits assumed): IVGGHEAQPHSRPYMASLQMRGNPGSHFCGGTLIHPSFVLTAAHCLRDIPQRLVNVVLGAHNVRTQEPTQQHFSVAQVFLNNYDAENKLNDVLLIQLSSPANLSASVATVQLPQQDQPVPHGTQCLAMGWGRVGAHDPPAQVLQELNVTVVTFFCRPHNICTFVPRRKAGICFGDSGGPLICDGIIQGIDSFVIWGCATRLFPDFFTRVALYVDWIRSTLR
Text: (§1) An in vitro assay can be used to screen compounds of the invention for the ability to reduce or inhibit serine proteinase activity. The human leukocyte elastase (HLE), cathepsin G (Cath G), and proteinase-3 assays have each been described (Groutas et al., J. Med. Chem. 32:1607-1611, 1989; Groutas et al., Arch. Biochem. Biophys. 294:144-146, 1992; Kao et al., J. Clin. Invest. 82:1963-1973, 1988, each incorporated by reference herein). The pseudo first-order inactivation rate constants (kobs) were obtained from plots of ln(vt /vo) vs t, and expressed in terms of the apparent second-order inactivation rate constant, kobs /[I] M^-1 s^-1 (Tables 1-7). Tables 1-7 disclose the activity of preferred compounds of the invention as inhibitors of HLE and Cath G. Table 7 discloses the activity of Compounds 4A (C) and 3E (D) as inhibitors of Proteinase-3 activity. Compounds (A) and (B) have been disclosed previously (Groutas et al., Bioorganic and Med. Chem. 1(4):273-277, 1993; Groutas et al., J. Med. Chem. 36:3178, 1993).

[2] = target: T2, human leukocyte elastase (HLE) (Homo sapiens, UniProt P08246); assay: Inactivation of human leukocyte elastase (kobs/[I]); type: biochemical
T2 construct: purchased Elastin Products Co., Owensville, Mo
T2 sequence (P08246 30-247 limits assumed): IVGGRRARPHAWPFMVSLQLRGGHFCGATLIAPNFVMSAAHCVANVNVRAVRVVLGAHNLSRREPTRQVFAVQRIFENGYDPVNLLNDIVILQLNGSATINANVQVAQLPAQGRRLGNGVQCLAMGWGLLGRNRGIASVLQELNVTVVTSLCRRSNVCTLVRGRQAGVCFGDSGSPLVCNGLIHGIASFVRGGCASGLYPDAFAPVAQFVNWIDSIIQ
Text: as §1
XII. Materials: Human leukocyte elastase was purchased from Elastin Products Co., Owensville, Mo.
(§2) Human leukocyte cathepsin G was obtained from Athens Research and Technology, Athens, Ga. Methoxysuccinyl Ala-Ala-Pro-Val p-nitroanilide and methoxysuccinyl Ala-Ala-Pro-Phe p-nitroanilide were purchased from Sigma Chemicals Co., St. Louis, Mo. Baker-analyzed 60-200 mesh silica gel was used for flash chromatography.

[3] = target: T3, cathepsin G (Cath G) (Homo sapiens, UniProt P08311); assay: Inactivation of human leukocyte cathepsin G (kobs/[I]); type: biochemical; settings: for kinact/KI: pH 7.5
T3 construct: purchased Athens Research and Technology, Athens, Ga
T3 sequence (P08311 21-244 limits assumed): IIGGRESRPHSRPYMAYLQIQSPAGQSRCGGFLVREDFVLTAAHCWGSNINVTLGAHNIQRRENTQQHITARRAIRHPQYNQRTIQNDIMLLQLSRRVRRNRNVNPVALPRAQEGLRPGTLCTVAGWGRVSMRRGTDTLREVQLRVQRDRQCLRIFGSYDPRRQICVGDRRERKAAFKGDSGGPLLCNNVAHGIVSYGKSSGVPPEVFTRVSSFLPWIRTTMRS
Description: Human leukocyte cathepsin G (1.33 uM) is incubated with compound 8 (133 uM) (a) or compound 10 (13.3 uM) (b) in 0.1M HEPES buffer, pH 7.5, and 10% DMSO. Aliquots were withdrawn at different time intervals and assayed for enzymatic activity using methoxysuccinyl Ala-Ala-Pro-Phe p-nitroanilide.
Human leukocyte cathepsin G (1.48 μM was incubated with inhibitor 5A (1.48 μM in 0.1M HEPES buffer, pH 7.5, and 1% DMSO. Aliquots were withdrawn at different time intervals and assayed for enzymatic activity using methoxysuccinyl Ala-Ala-Pro-Phe p-nitroanilide.
as §1, §2

[4] = tested on: neutrophil diapedesis (peritonitis); assay: Inhibition of neutrophil diapedesis after experimentally induced (starch) peritonitis; type: in vivo, rat; settings: 8 mg/kg i.v. single dose
Description: Each compound (A-D) was individually injected into the tail vein of a rat in a single dose (8 mg/kg). After injection, peritonitis was induced in the rat by an IP (intraperitoneal) injection of 1 ml of a 0.1% soluble starch solution. After 4 hours, the peritoneal cavity was lavaged with saline in order to determine the number and type of cells responding to peritonitis. Cell numbers were determined by a Coulter counter and cell type (e.g. lymphocytes, neutrophils, macrophages and monocytes) by standard Cytospin and Giemsa staining. Cell number and type was evaluated after IP injection of saline (negative control, no inflammation), starch (positive control, inflammation) or starch with IV injection of an inhibitor (experimental, inflammation). Inhibitors were dissolved in DMSO prior to administration.

SMILES: O=C(CSc1ccccc1)OCN1C(=O)c2ccccc2S1(=O)=O
% Proteinase-3 Inhibition [1]: 66%

SMILES: CC(C)(C)OC(=O)CN1[C@@H](Cc2ccccc2)C(=O)N(CF)S1(=O)=O [Compound 4A, (S)-4-Benzyl-5(tert-butoxycarbonylmethyl)-2-fluoromethyl-3-oxo-1,2,5-thiadiazolidine 1.1-dioxide]
kinact/KI ([2]; Table 2): 490 M⁻¹ s⁻¹
inhibition of Cath G (in words) [3]: an inhibitor of Cath G
Total Number of Cells Lavaged at 4 Hours, Lymphocytes ([4]; Experiment 2, starch): 6.5 × 10^6
Total Number of Cells Lavaged at 4 Hours, Macrophages Monocytes ([4]; Experiment 2, starch): 6.5 × 10^6
Total Number of Cells Lavaged at 4 Hours, Neutrophils ([4]; Experiment 2, starch): 41.0 × 10^6
Total Number of Cells Lavaged at 4 Hours, Total Cells ([4]; Experiment 2, starch): 54 × 10^6
Abdominal Lavage Cell Distribution, Lymphocytes ([4]; Experiment 2, starch, 4 hours): 12%
Abdominal Lavage Cell Distribution, Macrophages Monocytes ([4]; Experiment 2, starch, 4 hours): 12%
Abdominal Lavage Cell Distribution, Neutrophils ([4]; Experiment 2, starch, 4 hours): 76%
effect on neutrophil diapedesis (in words) ([4]; rat): did not inhibit neutrophil diapedesis associated with peritonitis

SMILES: O=C(C[S+]([O-])c1ccccc1)OCN1C(=O)C(Cc2ccccc2)CS1(=O)=O (stereo not drawn) [Compound 4C]
kinact/KI ([2]; Table 4): 320 M⁻¹ s⁻¹
kinact/KI ([3]; Table 4): 770 M⁻¹ s⁻¹

SMILES: O=C(CN1[C@@H](Cc2ccccc2)C(=O)N(CF)S1(=O)=O)OCc1ccccc1 [Compound 5A, (S) -Benzyl-5(benzyloxycarbonylmethyl)-2-fluoromethyl-3-oxo-1,2,5-thiadiazolidine 1.1-dioxide]
kinact/KI ([2]; Table 2): 810 M⁻¹ s⁻¹
time-dependent loss of serine protease activity ([3]; FIG. 6, Cath G 1.48 μM, inhibitor 1.48 μM, 0.1M HEPES pH 7.5, 1% DMSO): time-dependent loss of serine protease activity

SMILES: O=C(OCN1C(=O)C(Cc2ccccc2)CS1(=O)=O)[C@@H]1CCCN1C(=O)OCc1ccccc1 (stereo partly drawn) [Compound 5B]
kinact/KI ([2]; Table 3): 220 M⁻¹ s⁻¹
kinact/KI ([3]; Table 3): 7700 M⁻¹ s⁻¹

SMILES: Nc1ccc(O)c(C(=O)OCN2C(=O)C(Cc3ccccc3)CS2(=O)=O)c1 (stereo not drawn) [Compound 5]
kinact/KI ([2]; Table 1A): 470 M⁻¹ s⁻¹
kinact/KI ([3]; Table 1A): 3330 M⁻¹ s⁻¹

SMILES: CC(C)(C)OC(=O)N1CCC[C@H]1C(=O)OCN1C(=O)C(Cc2ccccc2)CS1(=O)=O (stereo partly drawn) [Compound 6B]
kinact/KI ([2]; Table 3): 170 M⁻¹ s⁻¹
kinact/KI ([3]; Table 3): 590 M⁻¹ s⁻¹

SMILES: O=C(/C=C\Sc1ccccc1)OCN1C(=O)C(Cc2ccccc2)CS1(=O)=O (stereo not drawn) [Compound 6C]
kinact/KI ([2]; Table 4): 170 M⁻¹ s⁻¹
kinact/KI ([3]; Table 4): 7270 M⁻¹ s⁻¹

SMILES: O=C1C(Cc2ccccc2)CS(=O)(=O)N1C(CF)Sc1ccccc1 (stereo not drawn) [Compound 7, 4-Benzyl-2-(2-fluoro-1-phenylthioethyl) isothiazolidin-3-one 1,1-dioxide]
HLE % inhibition ([2]; Table 1B footnote, [I]/[E] ratio of 200, 10 minute incubation period): 24%
kinact/KI ([3]; Table 1B): 40 M⁻¹ s⁻¹

SMILES: O=C(OCN1C(=O)C(Cc2ccccc2)CS1(=O)=O)[C@H]1CCCN1C(=O)OCc1ccccc1 (stereo partly drawn) [Compound 7B]
kinact/KI ([2]; Table 3): 520 M⁻¹ s⁻¹
kinact/KI ([3]; Table 3): 360 M⁻¹ s⁻¹

Other lines, results leading:

kinact/KI ([2]; Table 3): 2300 M⁻¹ s⁻¹
kinact/KI ([3]; Table 3): 160 M⁻¹ s⁻¹
SMILES: O=C(N[C@H](Cc1ccccc1)C(=O)OCN1C(=O)C(Cc2ccccc2)CS1(=O)=O)OCc1ccccc1 (stereo partly drawn) [Compound 3B]

kinact/KI ([2]; Table 4): 1020 M⁻¹ s⁻¹
kinact/KI ([3]; Table 4): 3340 M⁻¹ s⁻¹
SMILES: O=C(CSc1ccccc1)OCN1C(=O)C(Cc2ccccc2)CS1(=O)=O (stereo not drawn) [Compound 3C]

kinact/KI ([2]; Table 1A): 210 M⁻¹ s⁻¹
kinact/KI ([3]; Table 1A): 290 M⁻¹ s⁻¹
SMILES: CC(C(=O)OCN1C(=O)C(Cc2ccccc2)CS1(=O)=O)c1cccc(C(=O)c2ccccc2)c1 (stereo not drawn) [Compound 3]

kinact/KI ([2]; Table 3): 1140 M⁻¹ s⁻¹
kinact/KI ([3]; Table 3): 260 M⁻¹ s⁻¹
SMILES: CC(C)(C)OC(=O)N[C@H](Cc1ccccc1)C(=O)OCN1C(=O)C(Cc2ccccc2)CS1(=O)=O (stereo partly drawn) [Compound 4B]

kinact/KI ([2]; Table 1A): 830 M⁻¹ s⁻¹
kinact/KI ([3]; Table 1A): 3000 M⁻¹ s⁻¹
SMILES: CC(=O)Oc1ccccc1C(=O)OCN1C(=O)C(Cc2ccccc2)CS1(=O)=O (stereo not drawn) [Compound 4]

kinact/KI ([2]; Table 4): 340 M⁻¹ s⁻¹
kinact/KI ([3]; Table 4): 1050 M⁻¹ s⁻¹
SMILES: O=C(CS(=O)(=O)c1ccccc1)OCN1C(=O)C(Cc2ccccc2)CS1(=O)=O (stereo not drawn) [Compound 5C]
